{"source": "the CheMixHub ionic liquid set", "test": "xn = mol fraction of the nth substance listed", "note": "± gives the uncertainty stated by the source.", "data": [{"smiles": "CC(=O)[O-].CN1CCCN2CCC[NH+]=C12", "note": "+ O", "values": [{"measurement": "viscosity", "setting": "278.2 K, 101.3 kPa, x1 = 0.405", "result": "1800 ± 95", "unit": "mPa·s"}, {"measurement": "viscosity", "setting": "283.2 K, 101.3 kPa, x1 = 0.103", "result": "33 ± 6.6", "unit": "mPa·s"}, {"measurement": "viscosity", "setting": "283.2 K, 101.3 kPa, x1 = 0.206", "result": "204 ± 11", "unit": "mPa·s"}, {"measurement": "viscosity", "setting": "283.2 K, 101.3 kPa, x1 = 0.494", "result": "1496 ± 72", "unit": "mPa·s"}, {"measurement": "viscosity", "setting": "283.2 K, 101.3 kPa, x1 = 0.604", "result": "1825 ± 94", "unit": "mPa·s"}, {"measurement": "viscosity", "setting": "293.2 K, 101.3 kPa, x1 = 0.405", "result": "378 ± 13", "unit": "mPa·s"}, {"measurement": "viscosity", "setting": "298.2 K, 101.3 kPa, x1 = 0.301", "result": "144.9 ± 4.4", "unit": "mPa·s"}, {"measurement": "viscosity", "setting": "298.2 K, 101.3 kPa, x1 = 0.494", "result": "339.1 ± 9.8", "unit": "mPa·s"}, {"measurement": "viscosity", "setting": "303.2 K, 101.3 kPa, x1 = 0.301", "result": "99.8 ± 2.8", "unit": "mPa·s"}, {"measurement": "viscosity", "setting": "303.2 K, 101.3 kPa, x1 = 0.604", "result": "259.2 ± 6.7", "unit": "mPa·s"}, {"measurement": "viscosity", "setting": "308.2 K, 101.3 kPa, x1 = 0.206", "result": "32.5 ± 1.3", "unit": "mPa·s"}, {"measurement": "viscosity", "setting": "308.2 K, 101.3 kPa, x1 = 0.301", "result": "70.9 ± 1.8", "unit": "mPa·s"}, {"measurement": "viscosity", "setting": "313.2 K, 101.3 kPa, x1 = 0.301", "result": "51.8 ± 1.3", "unit": "mPa·s"}, {"measurement": "viscosity", "setting": "313.2 K, 101.3 kPa, x1 = 0.494", "result": "109 ± 1.8", "unit": "mPa·s"}, {"measurement": "viscosity", "setting": "318.2 K, 101.3 kPa, x1 = 0.301", "result": "39.02 ± 0.91", "unit": "mPa·s"}, {"measurement": "viscosity", "setting": "318.2 K, 101.3 kPa, x1 = 0.494", "result": "79.4 ± 1.1", "unit": "mPa·s"}, {"measurement": "viscosity", "setting": "323.2 K, 101.3 kPa, x1 = 0.604", "result": "66.33 ± 0.91", "unit": "mPa·s"}, {"measurement": "viscosity", "setting": "333.2 K, 101.3 kPa, x1 = 0.206", "result": "10.12 ± 0.32", "unit": "mPa·s"}, {"measurement": "viscosity", "setting": "338.2 K, 101.3 kPa, x1 = 0.494", "result": "28.19 ± 0.36", "unit": "mPa·s"}, {"measurement": "viscosity", "setting": "343.2 K, 101.3 kPa, x1 = 0.103", "result": "2.76 ± 0.17", "unit": "mPa·s"}, {"measurement": "viscosity", "setting": "353.2 K, 101.3 kPa, x1 = 0.301", "result": "8.98 ± 0.17", "unit": "mPa·s"}, {"measurement": "viscosity", "setting": "358.2 K, 101.3 kPa, x1 = 0.103", "result": "1.97 ± 0.1", "unit": "mPa·s"}, {"measurement": "viscosity", "setting": "358.2 K, 101.3 kPa, x1 = 0.206", "result": "4.58 ± 0.12", "unit": "mPa·s"}, {"measurement": "viscosity", "setting": "358.2 K, 101.3 kPa, x1 = 0.604", "result": "14.29 ± 0.18", "unit": "mPa·s"}, {"measurement": "viscosity", "setting": "363.2 K, 101.3 kPa, x1 = 0.604", "result": "12.16 ± 0.15", "unit": "mPa·s"}, {"measurement": "viscosity", "setting": "368.2 K, 101.3 kPa, x1 = 0.103", "result": "1.62 ± 0.08", "unit": "mPa·s"}, {"measurement": "viscosity", "setting": "368.2 K, 101.3 kPa, x1 = 0.604", "result": "10.46 ± 0.13", "unit": "mPa·s"}, {"measurement": "viscosity", "setting": "373.2 K, 101.3 kPa, x1 = 0.103", "result": "1.5 ± 0.07", "unit": "mPa·s"}, {"measurement": "viscosity", "setting": "373.2 K, 101.3 kPa, x1 = 0.301", "result": "5.14 ± 0.09", "unit": "mPa·s"}, {"measurement": "viscosity", "setting": "373.2 K, 101.3 kPa, x1 = 0.604", "result": "9.11 ± 0.12", "unit": "mPa·s"}]}, {"smiles": "CC(=O)[O-].Cn1cc[nH+]c1", "note": "+ O", "values": [{"measurement": "electrical conductivity", "setting": "293.15 K, 101.3 kPa, x2 = 0.0705", "result": "0.905 ± 0.001", "unit": "S/m"}, {"measurement": "electrical conductivity", "setting": "293.15 K, 101.3 kPa, x2 = 0.1339", "result": "1.176 ± 0.001", "unit": "S/m"}, {"measurement": "electrical conductivity", "setting": "293.15 K, 101.3 kPa, x2 = 0.8407", "result": "8.771 ± 0.001", "unit": "S/m"}, {"measurement": "electrical conductivity", "setting": "293.15 K, 101.3 kPa, x2 = 0.9035", "result": "6.875 ± 0.001", "unit": "S/m"}, {"measurement": "electrical conductivity", "setting": "298.15 K, 101 kPa, x1 = 0.0051", "result": "1.17 ± 0.045", "unit": "S/m"}, {"measurement": "electrical conductivity", "setting": "298.15 K, 101 kPa, x1 = 0.0151", "result": "2.49 ± 0.05", "unit": "S/m"}, {"measurement": "electrical conductivity", "setting": "298.15 K, 101 kPa, x2 = 0.9502", "result": "3.87 ± 0.08", "unit": "S/m"}, {"measurement": "electrical conductivity", "setting": "298.15 K, 101 kPa, x2 = 0.98", "result": "2.71 ± 0.06", "unit": "S/m"}, {"measurement": "viscosity", "setting": "303.15 K, 101 kPa, x2 = 0", "result": "5.91 ± 0.13", "unit": "mPa·s"}, {"measurement": "viscosity", "setting": "313.15 K, 101 kPa, x2 = 0", "result": "4.395 ± 0.099", "unit": "mPa·s"}]}, {"smiles": "CCCCCCCCn1cc[n+](C)c1C.[Cl-]", "note": "+ O", "values": [{"measurement": "electrical conductivity", "setting": "298 K, 101 kPa, x1 = 2.703e-05", "result": "0.02 ± 0.01", "unit": "S/m"}, {"measurement": "electrical conductivity", "setting": "298 K, 101 kPa, x1 = 0.0001369", "result": "0.09 ± 0.01", "unit": "S/m"}, {"measurement": "electrical conductivity", "setting": "298 K, 101 kPa, x1 = 0.000245", "result": "0.14 ± 0.01", "unit": "S/m"}, {"measurement": "electrical conductivity", "setting": "298 K, 101 kPa, x1 = 0.0003531", "result": "0.2 ± 0.02", "unit": "S/m"}, {"measurement": "electrical conductivity", "setting": "298 K, 101 kPa, x1 = 0.0004899", "result": "0.27 ± 0.02", "unit": "S/m"}, {"measurement": "electrical conductivity", "setting": "298 K, 101 kPa, x1 = 0.0007347", "result": "0.32 ± 0.03", "unit": "S/m"}, {"measurement": "electrical conductivity", "setting": "298 K, 101 kPa, x1 = 0.0008984", "result": "0.41 ± 0.03", "unit": "S/m"}, {"measurement": "electrical conductivity", "setting": "298 K, 101 kPa, x1 = 0.001197", "result": "0.48 ± 0.04", "unit": "S/m"}, {"measurement": "electrical conductivity", "setting": "298 K, 101 kPa, x1 = 0.001468", "result": "0.58 ± 0.05", "unit": "S/m"}, {"measurement": "electrical conductivity", "setting": "298 K, 101 kPa, x1 = 0.001766", "result": "0.69 ± 0.06", "unit": "S/m"}, {"measurement": "electrical conductivity", "setting": "298 K, 101 kPa, x1 = 0.002039", "result": "0.79 ± 0.06", "unit": "S/m"}, {"measurement": "electrical conductivity", "setting": "298 K, 101 kPa, x1 = 0.002391", "result": "0.88 ± 0.07", "unit": "S/m"}, {"measurement": "electrical conductivity", "setting": "298 K, 101 kPa, x1 = 0.002715", "result": "0.99 ± 0.08", "unit": "S/m"}, {"measurement": "electrical conductivity", "setting": "298 K, 101 kPa, x1 = 0.003203", "result": "1.14 ± 0.09", "unit": "S/m"}, {"measurement": "electrical conductivity", "setting": "298 K, 101 kPa, x1 = 0.003772", "result": "1.32 ± 0.11", "unit": "S/m"}, {"measurement": "electrical conductivity", "setting": "298 K, 101 kPa, x1 = 0.004474", "result": "1.48 ± 0.12", "unit": "S/m"}, {"measurement": "electrical conductivity", "setting": "298 K, 101 kPa, x1 = 0.005202", "result": "1.66 ± 0.13", "unit": "S/m"}, {"measurement": "electrical conductivity", "setting": "298 K, 101 kPa, x1 = 0.005876", "result": "1.77 ± 0.14", "unit": "S/m"}, {"measurement": "electrical conductivity", "setting": "298 K, 101 kPa, x1 = 0.006575", "result": "1.9 ± 0.15", "unit": "S/m"}, {"measurement": "electrical conductivity", "setting": "298 K, 101 kPa, x1 = 0.007219", "result": "2.02 ± 0.16", "unit": "S/m"}, {"measurement": "electrical conductivity", "setting": "298 K, 101 kPa, x1 = 0.007783", "result": "2.11 ± 0.17", "unit": "S/m"}, {"measurement": "electrical conductivity", "setting": "298 K, 101 kPa, x1 = 0.008319", "result": "2.19 ± 0.18", "unit": "S/m"}, {"measurement": "electrical conductivity", "setting": "298 K, 101 kPa, x1 = 0.0088", "result": "2.26 ± 0.18", "unit": "S/m"}, {"measurement": "electrical conductivity", "setting": "298 K, 101 kPa, x1 = 0.009202", "result": "2.34 ± 0.19", "unit": "S/m"}, {"measurement": "electrical conductivity", "setting": "298 K, 101 kPa, x1 = 0.009496", "result": "2.39 ± 0.19", "unit": "S/m"}]}]}
